These results are taken from ChEMBL document CHEMBL1124742 (J Med Chem, 1990).

Series [1] deals with CHO-AA8. The series can be described thus: In vitro cytotoxicity against transformed chinese hamster fibroblast line AA8. It is filed as functional, cell-based. The conditions noted are these: Cricetulus griseus.
The nature of series [2]: Evaluated for the mustard reactivity by determining rate constant for hydrolysis of mustard in aqueous acetone (K H). It is filed as ADME. Conditions: buffer.
Series [3] is described as follows: Evaluated for the mustard reactivity by determining rate constant for alkylation of 4-(4-nitrobenzyl)pyridine using NBP alkylation assay. It is filed as ADME.
Series [4] relates to P388. Nature of the series: In vitro cytotoxicity against P388 murine leukemia. Conditions: Mus musculus. It is filed as functional, cell-based.
The test system of series [5] is P388. Nature of the series: In vivo percentage increase in lifespan of drug treated tumor-bearing mice at a dose of 13.3 mg/kg. Type of series: functional. The conditions noted are these: Mus musculus.
Series [6] deals with P388. The series can be described thus: Optimal dose of drug administered as a single dose in 0.1 or 0.2 mL of 30% v/v ethanol/water on day one after ip inoculation of 10e6 P388 leukemia cells. It is filed as functional, Mus musculus.
Series [7] has as its system UV4. The series can be described thus: In vitro cytotoxicity against transformed chinese hamster fibroblast line UV4. Conditions: Cricetulus griseus. Type of series: functional, cell-based.
The species entered for series [8] is Cricetulus griseus. Nature of the series: Hypersensitivity factor(HF) was determined from the ratio of IC50(AA8) / IC50(UV4). It is filed as functional.
The subject of series [9] is P388. Nature of the series: In vivo percentage increase in lifespan of drug treated tumor-bearing mice at a dose of 45 mg/kg. Conditions: Mus musculus. Type of series: functional.
Series [10] deals with P388. The series can be described thus: Tested for the in vitro cytotoxicity against P388 murine leukemia. It is filed as cell-based. Conditions: Mus musculus.
In series [11] the test system is P388. The series can be described thus: In vivo percentage increase in lifespan of drug treated tumor-bearing mice at a dose of 225 mg/kg. It is filed as functional. The conditions noted are these: Mus musculus.
Series [12] deals with CHO-AA8. Nature of the series: (§1) Tested for the in vitro cytotoxicity against transformed chinese hamster fibroblast line AA8. It is filed as cell-based. Conditions: Cricetulus griseus.
For series [13], the system named is CHO-AA8. The description is as §1. Type of series: functional, cell-based. The conditions noted are these: Cricetulus griseus.
Series [14] deals with UV4. Nature of the series: Tested for the in vitro cytotoxicity against transformed chinese hamster fibroblast line UV4. Type of series: functional, cell-based. The conditions noted are these: Cricetulus griseus.
For series [15], the system named is P388. Nature of the series: In vivo percentage increase in lifespan of drug treated tumor-bearing mice at a dose of 20 mg/kg. It is filed as functional. The conditions noted are these: Mus musculus.

The IC50 is the point on the concentration scale where inhibition reaches its midpoint. The low end stands for greater potency in that assay, the high end for weaker potency in that assay. Usually ILS stands for how much longer treated animals lived than controls. Higher therefore signals much gain in survival.

As for `ClCCN(CCCl)c1ccc(CCCCCCNc2c3ccccc3nc3ccccc23)cc1`, the IC50 in series [1] is 0.53 µM; in series [4] it was 0.13 µM; in series [7], 0.015 µM. For the same molecule, the “K H” value in series [2] came to 33900 s⁻¹. Moreover, the “K NBP” value in [3] amounted to 157000 s⁻¹. In [5], the ILS at 13.3 mg/kg was 22%. Further, the OD in series [6] stood at 13.3 mg/kg. The Ratio in series [8] was 36.
On to `O=C(CCCCNc1c2ccccc2nc2ccccc12)Nc1ccc(N(CCCl)CCCl)cc1`, for which the results for the IC50 in series [1], in [4] and in series [7] were 0.9 µM, 3.2 µM and 0.08 µM, respectively. Further, the “K H” value in series [2] was determined as 2900 s⁻¹. For the same molecule, in [3], the “K NBP” value turned out to be 2500 s⁻¹. This molecule displayed an ILS at 45 mg/kg in series [9] of 58%. Besides, the OD in series [6] came to 45 mg/kg. In series [8], the Ratio turned out to be 11.3.
As to `O=C(CCCCCNc1c2ccccc2nc2ccccc12)c1ccc(N(CCCl)CCCl)cc1`, the IC50 in series [1] was 3.51 µM; in series [4] it was 0.33 µM; in series [7] it was 0.593 µM. Further, the “K H” value in series [2] is 1100 s⁻¹. Further, the “K NBP” value in series [3] amounted to 1800 s⁻¹. In series [6], this molecule showed an OD of 65 mg/kg. For the same molecule, in series [8], the Ratio amounted to 5.9.
In the case of `O=C(NCCCCNc1c2ccccc2nc2ccccc12)c1ccc(N(CCCl)CCCl)cc1`, the IC50 in series [1] stood at 3.7 µM; in [4], 0.51 µM; in series [7], 0.673 µM. In addition, the “K H” value in series [2] is 25700 s⁻¹. The “K NBP” value in series [3] worked out at 171000 s⁻¹. For the same molecule, the OD in series [6] turned out to be 20 mg/kg. The Ratio in [8] was 5.5.
Turning to `ClCCN(CCCl)c1ccc(SCCCCCNc2c3ccccc3nc3ccccc23)cc1`, the IC50 in series [1] stood at 0.71 µM; in series [4], 0.36 µM; in series [7], 0.037 µM. Moreover, the “K H” value in series [2] was 5900 s⁻¹. Moreover, the “K NBP” value in series [3] was 16900 s⁻¹. The ILS at 45 mg/kg in series [9] worked out at 23%. For the same molecule, the OD in series [6] was determined as 45 mg/kg. Besides, the Ratio in series [8] is 19.
As to `O=C(O)CCCc1ccc(N(CCCl)CCCl)cc1` [CHLORAMBUCIL], the IC50 was determined as 6.75 µM in series [10], 0.6 µM in series [7] and 26 µM in series [12]. This molecule came in with an ILS at 225 mg/kg in series [11] of 37%. Also, the OD in series [6] was 225 mg/kg. Moreover, the Ratio in series [8] was 58.
As to `O=S(=O)(CCCCCNc1c2ccccc2nc2ccccc12)c1ccc(N(CCCl)CCCl)cc1`, the figures for the IC50 in [13], in series [4] and in [14] were 0.57 µM, 0.64 µM and 0.57 µM, respectively. Further, the “K H” value in [2] was 2800 s⁻¹. In addition, the “K NBP” value in [3] was 500 s⁻¹. Also, the ILS at 45 mg/kg in series [9] worked out at 33%. For the same molecule, in [6], the OD was found to be 45 mg/kg. Moreover, the Ratio in series [8] came to 1.
Regarding `ClCCN(CCCl)c1ccc(OCCCCCNc2c3ccccc3nc3ccccc23)cc1`, the IC50 in [1] was found to be 0.21 µM; in series [4], 0.04 µM; in series [7], 0.005 µM. Besides, in series [2], the “K H” value is 100000 s⁻¹. Moreover, the “K NBP” value in series [3] is 115000 s⁻¹. In series [15], the ILS at 20 mg/kg came to 28%. This molecule showed an OD in [6] of 20 mg/kg. In addition, the Ratio in series [8] was found to be 46.
For the molecule `CCN(CC)CCCC(C)Nc1c2ccc(Cl)cc2nc2ccc(OC)cc12` (stereo not drawn) [QUINACRINE], the IC50 was 1.7 µM in series [1] and 0.14 µM in series [7]. Also, in series [8], the Ratio was found to be 11.5.
